We go through nine molecules from patent publication EP1854806A1, “Thioglycosides as pharmaceutically active agents” (MPG Max-Planck-Gesellschaft zur Förderung der …, priority 2006, dated 2007).

As usually defined, the IC50 is the concentration needed to halve the response being measured. Usually inhibition stands for the drop in the measured response relative to a control, in per cent.

Read-outs that look alike come from different tables or passages of the source.

Format in all cases: cell-based
Test [1] has as its target T1, human SGLT1 (Homo sapiens, UniProt P13866).
T1 construct: expressed in transfected cells; host or cells: CHO (Chinese hamster ovary) cells, stably transfected
T1 sequence (P13866 1-664): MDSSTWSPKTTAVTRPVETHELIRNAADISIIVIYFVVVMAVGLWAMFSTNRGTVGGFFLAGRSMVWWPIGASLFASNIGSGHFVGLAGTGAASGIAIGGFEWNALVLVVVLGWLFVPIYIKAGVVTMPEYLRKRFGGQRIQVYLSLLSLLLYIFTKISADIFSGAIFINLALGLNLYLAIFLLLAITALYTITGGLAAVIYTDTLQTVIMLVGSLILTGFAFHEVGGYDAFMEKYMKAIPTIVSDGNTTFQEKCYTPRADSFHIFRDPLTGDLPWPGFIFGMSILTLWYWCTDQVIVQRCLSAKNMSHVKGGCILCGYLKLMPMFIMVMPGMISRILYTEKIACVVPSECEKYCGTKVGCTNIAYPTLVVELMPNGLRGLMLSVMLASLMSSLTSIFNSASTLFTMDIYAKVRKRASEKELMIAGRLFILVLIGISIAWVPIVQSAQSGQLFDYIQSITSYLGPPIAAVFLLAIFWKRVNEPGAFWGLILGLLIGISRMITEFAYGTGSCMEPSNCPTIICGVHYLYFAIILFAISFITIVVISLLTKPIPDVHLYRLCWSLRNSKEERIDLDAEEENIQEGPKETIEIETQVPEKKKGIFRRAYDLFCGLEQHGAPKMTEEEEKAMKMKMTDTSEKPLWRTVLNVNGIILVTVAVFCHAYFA
Kind of test: Inhibition of sodium-dependent D-glucose transport, [14C]AMG-uptake. As to conditions: for Ki: apparent inhibitory constant, Dixon plot; for inhibitory effect, hSGLT1 compared with hSGLT2: [14C]AMG-uptake, 10µM, n=16, p<0.001, result in words. The procedure: (§1) Stable transfected Chinese hamster ovary (CHO) cells that express human SGLT1 or human SGLT2 were seeded at a concentration of […] and maintained in culture for 2 days to allow the cells to form a confluent monolayer culture. For transport studies cells were seeded in 96-well microtiter scintiplates (PerkinElmer, Weisbaden, German). For fluorescence resonance energy transfer (FRET) analysis cells were seeded in flat-bottom, poly-D-lysine black-wall, clear bottom, 96-well plates (Becton Dickinson; Heidelberg, Germany).
(§2) Sodium-dependent D-glucose transport was determined by means of α-methyl [^14C]D-glucopyranoside ([^14C]AMG, spec. Radioactivity 300 mCi/mmol) purchased from NEN (Bad Homburg, Germany). For the purpose of this study, Krebs-Ringer-Henseleit (KRH) solution containing 120 mM NaCl, 4.7 mM KCI, 1.2 mM MgCl2, 2.2 mM CaCl2, 10 mM Hepes (pH 7.4 with Tris) was used to assess sodium-dependent D-glucose transport. For sodium free conditions, KRH solution containing 120 mM N-methyl-glucamine (NMG) instead of NaCl (Na^+) was used to assess sodium-independent D-glucose transport. All chemicals were purchased from Sigma (Deisenhof, Germany).
(§3) Briefly, cells were rinsed three times with 200 µl KRH-Na^+ or KRH-NMG. Then, 100 µl per well of transport buffer containing KRH-NA^+ or KRH-NMG plus [^14C]AMG (0.1 µCi/µl) were added and incubated for 1 hour. […] Then, the cells were solubilized by adding 100 µl of ATPlite substrate solution (PerkinElmer, Boston, USA) and luminescence ATP detection was assessed using a MicroBeta Trilux (PerkinElmer). A standard curve was used to determine the amount of ATP as mg of protein. After 24 hours the microtiter plate was taken for scintillation counting of radioactive [^14C]AMG-uptake using a MicroBeta Trilux (PerkinElmer). Subsequently, the mean counts per minute (cpm) were calculated and converted to […] (pmol). The obtained radioactive counts were expressed as pmol/mg/hour. Sodium-dependent [14C]AMG-uptake was calculated by subtracting uptake under sodium-free conditions from the uptake obtained in the presence of sodium.
(§4) The inhibitory effect on SGLT transport was also analyzed by IC50 values. Dixon plot analysis was used for both estimation of the inhibition constant (Ki) and for identification of the mechanism of enzyme inhibition. Ki was determined by the point of intersection of two different substrate concentrations. Plots of the reciprocal of rate of metabolite formation (1/Rate) versus inhibitor concentration at each substrate concentration were prepared.

Test [2] has as its target T2, human SGLT2 (Homo sapiens, UniProt P31639).
T2 construct: expressed in transfected cells; host or cells: CHO (Chinese hamster ovary) cells, stably transfected
T2 sequence (P31639 1-672): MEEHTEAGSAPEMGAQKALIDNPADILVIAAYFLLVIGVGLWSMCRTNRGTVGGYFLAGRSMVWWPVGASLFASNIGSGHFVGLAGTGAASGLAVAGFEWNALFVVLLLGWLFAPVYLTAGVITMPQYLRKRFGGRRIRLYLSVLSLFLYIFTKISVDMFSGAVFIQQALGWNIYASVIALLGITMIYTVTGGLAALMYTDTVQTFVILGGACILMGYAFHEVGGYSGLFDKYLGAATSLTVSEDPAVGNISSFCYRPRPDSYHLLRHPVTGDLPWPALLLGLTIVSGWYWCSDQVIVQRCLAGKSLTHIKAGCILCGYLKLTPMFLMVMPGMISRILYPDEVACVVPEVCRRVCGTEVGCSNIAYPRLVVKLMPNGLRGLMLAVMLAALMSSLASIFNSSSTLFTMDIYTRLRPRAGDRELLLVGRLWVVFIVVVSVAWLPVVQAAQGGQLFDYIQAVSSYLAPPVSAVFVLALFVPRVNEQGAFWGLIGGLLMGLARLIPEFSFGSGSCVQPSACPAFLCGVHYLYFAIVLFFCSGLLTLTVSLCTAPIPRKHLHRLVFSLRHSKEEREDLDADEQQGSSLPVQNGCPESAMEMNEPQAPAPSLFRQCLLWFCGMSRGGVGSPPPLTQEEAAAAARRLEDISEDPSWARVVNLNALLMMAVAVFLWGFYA
The test is described as above. As to conditions: hSGLT2; for Ki: apparent inhibitory constant, Dixon plot. The procedure: as §1, §2, §3, §4

Test [3] deals with T1, human SGLT1. Nature of the test: SGLT activity (membrane translocation) by fluorescence resonance energy transfer (FRET). The conditions noted are these: for transport through hSGLT1 (FRET): result in words; for fluorescence signal ratios: hSGLT1 in CHO cells, 10 µm thioglucoside, normalized to non-transfected CHO cells, ratio higher than 1 = transported, n=16. The procedure:
as §1
(§5) SGLT activity, as indicated by membrane translocation, was assessed using fluorescence resonance energy transfer (FRET). Cells were incubated for 48 hours ar 37°C in a 5% CO2 atmosphere in growth medium. Cells were washed with 0.2 ml Dulbecco's phosphate-buffered saline (Invitrogen, Karlsruhe, Germany) and then incubated with 0.1 ml of a solution containing 5 µm CC2-DMPE and 0.02% pluronic acid in PBS. After incubation in the dark for 30 min at 25°C, cells were washed twice with 0.2 ml PBS. Afterwards, cells were incubated in the dark at 25°C for 30 minutes with 0.1 ml of a solution containing […] DiSBAC2(3). A t the end of the incubation period 1 mM of each thioglucoside was added and excited by 390 nm. Fluorescence emission was recorded at 460 and 580 nm. After a 20 second baseline reading, 0.1 ml of PBS containing 10 µM of each compound was added, and the fluorescence was calculated as the ratio F/F0 = [(A460/A580)/(I460/I580)] where A and I represent the reading after or before addition of each thioglucoside, respectively. For I, the readings form 2-5 seconds were averaged; and for A, readings from 3 seconds after the signal that had reached a plateau level (usually within 2-5 seconds) were also averaged. FRET values were expressed as relative fluorescence units (RFU).
(§6) The activity of the sodium-dependent D-glucose cotransport system was studied by changes in membrane potential induced by each of the eight thioglucosides (see Table 1) (10 µm). FRET values were normalized using the fluorescence signal obtained from non-transfected CHO cells.

Test [4] concerns the target T2, human SGLT2. Described as above. As to conditions: for transport through hSGLT2 (FRET): result in words; for fluorescence ratios: hSGLT2 in CHO cells, 10 µm thioglucoside, normalized to non-transfected CHO cells, ratio higher than 1 = transported, n=16. The procedure:
as §1, §5, §6

With `Cc1ccccc1S[C@@H]1O[C@H](CO)[C@@H](O)[C@H](O)[C@H]1O` [Thioglucoside 4, o-Tolyl-1'-thio-β-D-glucopyranoside], at human SGLT1 [1], the IC50 came out at 30 µM and the “inhibitory effect, hSGLT1 compared with hSGLT2” value is listed as “stronger for hSGLT1”. At human SGLT1 [1] (Ki, hSGLT1), the Ki turned out to be 0.28 µM. Further, at human SGLT1 [1] (read-out: [14C]AMG-uptake, % inhibition), the inhibition at 10 µM is > 70%. Besides, on human SGLT2 [2], the IC50 was 18 µM and the Ki worked out at 132 µM. The “transport through hSGLT1 (FRET)” value at human SGLT1 [3] is reported as “significantly transported”. In addition, at human SGLT2 [4], the “transport through hSGLT2 (FRET)” value is recorded as “significantly transported” and the fluorescence ratios is on record as 1.63.

In the case of `OCc1cccc(S[C@@H]2O[C@H](CO)[C@@H](O)[C@H](O)[C@H]2O)c1` [Thioglucoside 5, 3-Hydroxymethyl-phenyl-1'-thio-β-D-glucopyranoside], the IC50 came to 47 µM against human SGLT1 [1] and 12 µM on human SGLT2 [2]. Moreover, the Ki on human SGLT1 [1] (Ki, hSGLT1) was 0.12 µM; at human SGLT2 [2] it was 0.02 µM. The fluorescence signal ratios on human SGLT1 [3] was 1.01.

Turning to `OCc1ccccc1S[C@@H]1O[C@H](CO)[C@H](O)[C@H](O)[C@H]1O` [Thioglucoside 6, 2-Hydroxymethyl-phenyl-1'-thio-β-D-galactopyranoside], the half-inhibitory concentration (IC50) was 120 µM on human SGLT1 [1] and 15 µM against human SGLT2 [2]. Also, the Ki on human SGLT1 [1] (Ki, hSGLT1) came out at 140 µM; at human SGLT2 [2], 0.01 µM. Besides, on human SGLT2 [4], the fluorescence ratios came out at 1.32.

With `OCc1ccccc1S[C@@H]1O[C@H](CO)[C@@H](O)[C@H](O)[C@H]1O` [Thioglucoside 2, 2-Hydroxymethyl-phenyl-1'-thio-β-D-glucopyranoside], on human SGLT1 [1], the IC50 was 41 µM and the “inhibitory effect, hSGLT1 compared with hSGLT2” value is reported as “stronger for hSGLT1”. Further, the Ki at human SGLT1 [1] (Ki, hSGLT1) was determined as 383 µM. At human SGLT2 [2], half-maximal inhibition (IC50) required 9 µM and the Ki amounted to 0.01 µM. Besides, the “transport through hSGLT1 (FRET)” value at human SGLT1 [3] was “not transported”. In addition, the “transport through hSGLT2 (FRET)” value at human SGLT2 [4] is “not transported”.

As for `Cc1ccc(S[C@@H]2O[C@H](CO)[C@@H](O)[C@H](O)[C@H]2O)cc1` [Thioglucoside 7, p-Tolyl-1'-thio-β-D-glucopyranoside], at human SGLT1 [1], the IC50 amounted to 52 µM. Moreover, on human SGLT1 [1] (Ki, hSGLT1), the Ki was 23 µM. Moreover, on human SGLT2 [2], the IC50 was 32 µM and the Ki was 175 µM. Further, at human SGLT2 [2] (10µM, n=16), the inhibition at 10 µM is > 70%. For the same molecule, at human SGLT1 [3], the “transport through hSGLT1 (FRET)” value is recorded as “significantly transported” and the fluorescence signal ratios is reported as 2.64. Also, at human SGLT2 [4], the “transport through hSGLT2 (FRET)” value is reported as “significantly transported” and the fluorescence ratios is recorded as 4.22.

For the molecule `C/C(=C\CC/C(C)=C/CS[C@@H]1O[C@H](CO)[C@@H](O)[C@H](O)[C@H]1O)CO` [Thioglucoside 1, 8-Hydroxygeranol-1'-thio-β-D-glucopyranoside], at human SGLT1 [1], the “inhibitory effect, hSGLT1 compared with hSGLT2” value is reported as “stronger for hSGLT1”. The Ki at human SGLT1 [1] (hSGLT1, read-out: Ki) was 0.1 µM; at human SGLT2 [2], 0.03 µM. Besides, the concentration for half-maximal inhibition (IC50) amounted to 35 µM on human SGLT1 [1] (hSGLT1, read-out: IC50) and 12 µM on human SGLT2 [2]. In addition, at human SGLT1 [3], the “transport through hSGLT1 (FRET)” value was “not transported”. Moreover, at human SGLT2 [4], the “transport through hSGLT2 (FRET)” value is reported as “not transported”.

Turning to `Cc1cccc(S[C@@H]2O[C@H](CO)[C@@H](O)[C@H](O)[C@H]2O)c1` [Thioglucoside 8, m-Tolyl-1'-thio-β-D-glucopyranoside], the values for the IC50 against human SGLT1 [1] and against human SGLT2 [2] were 40 µM and 11 µM, respectively. Also, the Ki was 0.17 µM on human SGLT1 [1] (Ki, hSGLT1) and 0.02 µM on human SGLT2 [2]. Besides, the “transport through hSGLT1 (FRET)” value at human SGLT1 [3] is reported as “not transported”. Also, on human SGLT2 [4], the “transport through hSGLT2 (FRET)” value was “not transported”.

As for `OC[C@H]1O[C@@H](Sc2ccccc2)[C@H](O)[C@@H](O)[C@@H]1O` [Thioglucoside 3, Phenyl-1'-thio-β-D-glucopyranoside], on human SGLT1 [1], the IC50 amounted to 4 µM and the “inhibitory effect, hSGLT1 compared with hSGLT2” value is recorded as “stronger for hSGLT1”. Further, the Ki on human SGLT1 [1] (Ki, hSGLT1) was 0.08 µM. Besides, on human SGLT2 [2], the IC50 stood at 16 µM and the Ki came out at 135 µM. On human SGLT1 [3], the “transport through hSGLT1 (FRET)” value is “significantly transported” and the fluorescence signal ratios was 1.15. Moreover, on human SGLT2 [4], the “transport through hSGLT2 (FRET)” value is on record as “significantly transported” and the fluorescence ratios is 1.21.

For `O=C(CCc1ccc(O)cc1)c1c(O)cc(O)cc1O[C@@H]1O[C@H](CO)[C@@H](O)[C@H](O)[C@H]1O` [phlorizin, reference compound], the “transport through hSGLT2 (FRET)” value at human SGLT2 [4] is reported as “not transported”.
